Assay results published in paper PMC8745332, “Synthesis, Molecular Docking and Biological Characterization of Pyrazine Linked 2-Aminobenzamides as New Class I Selective Histone Deacetylase (HDAC) Inhibitors with Anti-Leukemic Activity” (International Journal of Molecular Sciences, 2021).

Columns and labels:
human HDAC3/NCOR1 = target: T1, human HDAC3/NCOR1 (Homo sapiens, UniProt O15379); test: In vitro HDAC3 inhibition assay, fluorogenic p53 peptide Ac-RHKK(Acetyl)-AMC; type: biochemical
T1 construct: purchased ENZO Life Sciences AG (Lausen, CH)
Description: (§1) Recombinant human HDAC1, HDAC2, and HDAC3/NCOR1 were purchased from ENZO Life Sciences AG (Lausen, CH). Recombinant human HDAC 4, HDAC5, HDAC7, HDAC9 and HDAC11 were produced by Barinka lab in Prague, as described before. Recombinant human HDAC8 was produced by Romier et al. (IGBMC, Univ. Strasbourg), as described in [55].
The in vitro testing on recombinant HDACs 1-3 were performed with a fluorogenic peptide derived from p53 (Ac-RHKK(Acetyl)-AMC). The measurements were performed in an assay buffer (50 mM Hepes, 150 mM NaCl, 5 mM MgCl2, 1 mM TCEP and 0.2 mg/mL BSA, pH 7.4 adjusted with NaOH) at 37 °C. Inhibitors at different concentrations were incubated with 10 nM HDAC1, 3 nM HDAC2 or 3 nM HDAC3 (final concentration) for at least 5 min. The reaction was started with the addition of the fluorogenic substrate (20 µM final concentration) and incubated for 30 min for HDAC2 and HDAC3 and 90 min for HDAC1. The reaction was stopped with a solution of 1 mg/mL trypsin and 20 µM SAHA in 1 mM HCl and incubated for 1 h at 37 °C. […] The received fluorescence intensities were normalized with uninhibited reaction as 100% and the reaction without enzyme as 0%. A nonlinear regression analysis was done to determine the IC50 value.

human HDAC8 = target: T2, human HDAC8 (Homo sapiens, UniProt Q9BY41); test: HDAC8 homogenous fluorescence assay with ZMAL substrate; type: biochemical; settings: read-out: HDAC8 (% Inhib.)
T2 construct: made in house
T2 sequence (Q9BY41 1-377): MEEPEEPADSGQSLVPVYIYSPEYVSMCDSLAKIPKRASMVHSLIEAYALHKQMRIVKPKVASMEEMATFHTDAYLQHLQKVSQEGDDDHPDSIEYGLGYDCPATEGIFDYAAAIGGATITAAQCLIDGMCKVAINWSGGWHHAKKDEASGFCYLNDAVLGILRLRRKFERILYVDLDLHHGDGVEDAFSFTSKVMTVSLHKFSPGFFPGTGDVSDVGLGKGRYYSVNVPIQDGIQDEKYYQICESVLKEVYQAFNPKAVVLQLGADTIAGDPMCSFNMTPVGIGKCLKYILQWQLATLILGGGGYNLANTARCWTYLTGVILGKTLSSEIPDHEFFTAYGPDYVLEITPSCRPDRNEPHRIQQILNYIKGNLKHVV
Description: as §1
Fluorescence intensity was measured at an excitation wavelength of 390 nm and an emission wavelength of 460 nm in a microtiter plate reader (BMG Polarstar).

HDAC6 = target: T3, HDAC6 (Homo sapiens, UniProt Q9UBN7); test: HDAC6 inhibition (HDAC subtype panel); type: biochemical
T3 construct: made in house
T3 sequence (Q9UBN7 1-1215): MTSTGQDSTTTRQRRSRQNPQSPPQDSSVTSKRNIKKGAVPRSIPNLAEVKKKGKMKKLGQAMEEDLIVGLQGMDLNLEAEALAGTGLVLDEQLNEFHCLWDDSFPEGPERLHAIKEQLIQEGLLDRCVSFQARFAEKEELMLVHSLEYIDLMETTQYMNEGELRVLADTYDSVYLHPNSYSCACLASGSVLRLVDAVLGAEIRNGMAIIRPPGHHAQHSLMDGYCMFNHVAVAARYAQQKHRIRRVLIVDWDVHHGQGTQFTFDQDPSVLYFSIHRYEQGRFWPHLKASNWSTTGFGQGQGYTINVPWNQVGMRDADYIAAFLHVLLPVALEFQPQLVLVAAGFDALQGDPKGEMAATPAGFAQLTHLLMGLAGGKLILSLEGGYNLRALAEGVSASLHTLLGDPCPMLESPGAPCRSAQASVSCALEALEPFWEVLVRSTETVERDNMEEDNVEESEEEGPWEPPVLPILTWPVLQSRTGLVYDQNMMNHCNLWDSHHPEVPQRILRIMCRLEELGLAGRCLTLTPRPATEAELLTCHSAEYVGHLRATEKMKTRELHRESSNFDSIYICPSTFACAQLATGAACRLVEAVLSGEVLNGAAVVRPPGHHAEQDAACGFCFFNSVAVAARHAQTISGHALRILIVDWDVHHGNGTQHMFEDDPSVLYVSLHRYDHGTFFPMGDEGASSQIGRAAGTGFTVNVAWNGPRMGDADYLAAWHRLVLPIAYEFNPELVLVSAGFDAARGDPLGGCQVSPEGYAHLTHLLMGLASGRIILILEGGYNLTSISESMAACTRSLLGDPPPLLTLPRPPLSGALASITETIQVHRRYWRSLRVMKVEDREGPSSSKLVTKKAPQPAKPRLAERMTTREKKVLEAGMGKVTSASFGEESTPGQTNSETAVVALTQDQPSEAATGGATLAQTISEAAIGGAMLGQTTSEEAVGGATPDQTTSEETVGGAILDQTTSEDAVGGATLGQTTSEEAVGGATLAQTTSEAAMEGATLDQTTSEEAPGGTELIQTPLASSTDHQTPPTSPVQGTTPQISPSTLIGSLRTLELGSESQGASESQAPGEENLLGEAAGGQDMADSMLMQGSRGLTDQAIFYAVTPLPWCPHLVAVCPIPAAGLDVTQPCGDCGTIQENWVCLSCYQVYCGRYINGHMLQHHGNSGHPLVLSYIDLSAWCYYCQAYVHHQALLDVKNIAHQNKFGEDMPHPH

HEL cells = test: Cytotoxicity/apoptosis in HEL cells expressing JAK2V617F, annexin V-FITC/PI flow cytometry; type: cell-based, human
Description: (B) Cells were stained with annexin V-FITC/PI and analyzed via flow cytometry. […] IC50 values were determined for 19f. Results represent three independent experiments.
This erythroleukemia cell model carries a mutation in Janus kinase-2 (JAK2V617F) and HDACi are considered as therapeutic options to control the transformation of this disease into AML [53].
All leukemic cells were kept in RPMI-1640 medium supplemented with 10% FBS and 1%penicillin/streptomycin (Sigma-Aldrich, Taufkirchen, Germany) under standard culture conditions at 37 °C and a 5% CO2 humidified atmosphere. Cells were authenticated as mentioned by us.

MV4-11 and MOLM-13 cells = test: Immunoblot of acetylated histone H3 and cleaved caspase-3; type: cell-based, human; settings: MV4-11 and MOLM-13 cells, 0.25, 0.5, 1 µM, 24 h
Description: (C,D) The same experiments were conducted with MOLM-13 cells. (E) IC50 values were determined for 19f. (F) Immunoblot was done with the stated antibodies and lysates of MV4-11 and MOLM-13 cells that were incubated with the HDACi for 24 h. […] Graphs show representatives of three independent experiments.

T1 sequence (O15379 whole entry): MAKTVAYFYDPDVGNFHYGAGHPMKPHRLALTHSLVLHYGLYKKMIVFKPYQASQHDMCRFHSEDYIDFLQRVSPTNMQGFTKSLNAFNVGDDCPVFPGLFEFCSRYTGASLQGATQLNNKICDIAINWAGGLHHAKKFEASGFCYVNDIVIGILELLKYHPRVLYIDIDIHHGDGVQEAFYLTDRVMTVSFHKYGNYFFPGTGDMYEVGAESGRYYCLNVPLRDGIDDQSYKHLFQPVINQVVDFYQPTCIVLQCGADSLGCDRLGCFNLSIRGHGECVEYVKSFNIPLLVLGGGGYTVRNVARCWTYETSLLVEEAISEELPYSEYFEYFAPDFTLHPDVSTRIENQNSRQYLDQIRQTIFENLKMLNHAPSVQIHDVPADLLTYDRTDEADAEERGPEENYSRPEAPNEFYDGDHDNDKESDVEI
T1 sequence (O75376 395-489 partner limits assumed): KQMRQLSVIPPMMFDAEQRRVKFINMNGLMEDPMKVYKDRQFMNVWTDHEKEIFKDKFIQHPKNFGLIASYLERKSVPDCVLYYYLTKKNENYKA

In the case of Nc1ccccc1NC(=O)c1cnc(N2CCN(Cc3c[nH]c4ccccc34)CC2)cn1 [19f, 5-(4-((1H-indol-3-yl)methyl)piperazin-1-yl)-N-(2-aminophenyl)pyrazine-2-carboxamide], the IC50 (human HDAC3/NCOR1; 3 nM HDAC3, 20 µM substrate, 30 min, 37 °C) is reported as 0.31 ± 0.01 µM, the inhibition at 1 µM (human HDAC8) is reported as 0% and the IC50 (HDAC6) is reported as > 20 µM. For the same molecule, the “apoptosis in HEL cell cultures” value (HEL cells; 0.5 µM, 48 h) was 26%, the IC50 (HEL cells; Homo sapiens, 0.25 µM to 5 µM, 24 h, read-out: IC50 for toxic effects on HEL cells) was 0.925 µM and the “accumulation of acetylated histone H3 (immunoblot)” value (MV4-11 and MOLM-13 cells) was “triggered the expected accumulation of acetylated histone H3 dose-dependently and more potently than MS-275 did”.
For Cn1cc(CCN2CCN(c3cnc(C(=O)Nc4cc(-c5cccs5)ccc4N)cn3)CC2)c2ccccc21 [21a, N-(2-Amino-5-(thiophen-2-yl)phenyl)-5-(4-(2-(1-methyl-1H-indol-3-yl)ethyl)piperazin-1-yl)pyrazine-2-carboxamide], the inhibition at 1 µM (human HDAC3/NCOR1; read-out: HDAC3 % inhibition @ 1 µM) was 0% and the IC50 (HDAC6) was > 20 µM.
